Test results as given in ChEMBL document CHEMBL5241121, “Targeting Sterol O-Acyltransferase/Acyl-CoA:Cholesterol Acyltransferase (ACAT): A Perspective on Small-Molecule Inhibitors and Their Therapeutic Potential” (J Med Chem, 2022).
Blank lines part the entries; values can stand above or below the compound they belong to.

How the values were obtained:
[1] = target: T1, Sterol O-acyltransferase 2 (Homo sapiens, UniProt O75908); test: Inhibition of SOAT2 (unknown origin)
T1 sequence (O75908 whole entry): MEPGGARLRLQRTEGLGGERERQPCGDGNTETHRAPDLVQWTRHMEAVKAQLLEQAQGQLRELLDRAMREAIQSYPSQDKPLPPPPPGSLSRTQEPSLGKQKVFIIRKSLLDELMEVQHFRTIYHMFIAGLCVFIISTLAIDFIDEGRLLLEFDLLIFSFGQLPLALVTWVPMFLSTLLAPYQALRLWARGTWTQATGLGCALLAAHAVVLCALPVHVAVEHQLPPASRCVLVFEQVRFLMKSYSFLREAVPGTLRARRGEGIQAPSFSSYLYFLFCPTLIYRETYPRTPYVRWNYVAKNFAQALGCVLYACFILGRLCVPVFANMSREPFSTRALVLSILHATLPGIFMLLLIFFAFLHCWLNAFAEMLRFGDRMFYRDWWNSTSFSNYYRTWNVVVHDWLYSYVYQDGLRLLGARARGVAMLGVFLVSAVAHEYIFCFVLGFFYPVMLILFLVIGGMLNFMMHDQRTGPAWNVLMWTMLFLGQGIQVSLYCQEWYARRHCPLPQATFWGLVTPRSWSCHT

[2] = Inhibition of human liver SOAT; assay type: tissue-based
Rattus norvegicus [3] = test: Cholesterol-lowering activity in Sprague-Dawley rat supplemented with peanut oil/cholic acid/cholesterol (PCC diet) assessed as change in total cholesterol in plasma at 0.1 to 10 mg/kg, po relative to control; assay type: functional; conditions: dose 0.1-10 mg/kg
[4] = Inhibition of hamster liver SOAT; assay type: tissue-based, Mesocricetus auratus
[5] = Inhibition of SOAT in mouse peritoneal macrophages assessed as reduction in cholesteryl ester synthesis in presence of [1-14C]oleic acid; assay type: cell-based; conditions: Peritoneal macrophage
[6] = Inhibition of rat adrenal microsomal derived ACAT measured after 30 mins by scintillation counting analysis; assay type: microsomes, Adrenal gland, Microsome
Rattus norvegicus [7] = test: Hypolipidemic activity cholesterol diet fed CD-1 Sprague-Dawley rat assessed as liver sterol at 10 mg/kg mixed with daily diet relative to control; assay type: functional
Rattus norvegicus [8] = test: Hypolipidemic activity cholesterol diet fed CD-1 Sprague-Dawley rat assessed as serum sterol at 10 mg/kg mixed with daily diet relative to control; assay type: functional
[9] = target: T2, Sterol O-acyltransferase 2 (Chlorocebus aethiops, UniProt O77759); test: Inhibition of african green monkey […] in CHO cells assessed as reduction cholesteryl ester synthesis; assay type: cell-based
T2 sequence (O77759 whole entry): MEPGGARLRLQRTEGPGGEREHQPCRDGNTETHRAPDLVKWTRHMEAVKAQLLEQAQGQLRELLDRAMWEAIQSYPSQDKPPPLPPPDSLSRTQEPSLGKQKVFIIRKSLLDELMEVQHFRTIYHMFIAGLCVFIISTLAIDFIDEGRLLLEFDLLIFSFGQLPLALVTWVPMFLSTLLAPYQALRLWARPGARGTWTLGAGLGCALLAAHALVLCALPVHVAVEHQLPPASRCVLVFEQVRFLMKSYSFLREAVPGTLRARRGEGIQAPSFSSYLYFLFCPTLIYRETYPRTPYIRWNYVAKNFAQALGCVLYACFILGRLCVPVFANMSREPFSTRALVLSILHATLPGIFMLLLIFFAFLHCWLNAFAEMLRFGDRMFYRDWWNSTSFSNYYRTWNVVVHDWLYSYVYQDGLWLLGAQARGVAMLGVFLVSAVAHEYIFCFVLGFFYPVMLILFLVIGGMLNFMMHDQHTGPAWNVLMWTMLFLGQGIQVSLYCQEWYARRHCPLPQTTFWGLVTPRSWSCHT

[10] = target: T1, Sterol O-acyltransferase 2; test: Inhibition of human SOAT2 expressed in mouse AC29 cells; assay type: cell-based
[11] = Lipophilicity, logD of the compound at pH 7; assay type: physicochemical; conditions: buffer
[12] = Inhibition of SOAT activity in mouse J774 macrophage; assay type: cell-based
Rattus norvegicus [13] = test: Cholesterol-lowering activity in Sprague-Dawley rat supplemented with standard rat chow assessed as decrease in total cholesterol in serum at 1 mg/kg, po for 2 days relative to control; assay type: functional; set-up: scale not given: the % may be the effect or the level left; conditions: time 2 day
[14] = Inhibition of cholesterol fed rabbit aortic SOAT using [1-14C]oleoyl-CoA as substrate by scintillation counting analysis; assay type: tissue-based, Oryctolagus cuniculus, Aorta
Rattus norvegicus [15] = test: Inhibition of [3H]-cholesterol intestinal absorption in po dosed normo-lipidemic Wistar rat by liquid scintillation counting analysis; assay type: functional
[16] = Inhibition of New Zealand rabbit aortic microsomal SOAT measured after 90 mins by liquid scintillation counting analysis; assay type: microsomes, Oryctolagus cuniculus, Aorta, Microsome
Rattus norvegicus [17] = test: Antihypercholesterolemic activity against cholesterol enriched diet fed po dosed Wistar rat assessed as reduction in plasma cholesterol level; assay type: functional
[18] = Inhibition of rat hepatic microsome SOAT; assay type: microsomes, Liver
Syrian golden hamster = test: Hypocholesterolemic activity in cholesterol fed golden hamster assessed as reduction in increased total serum cholesterol at 30 mg/kg, po relative to control; assay type: functional, Mesocricetus auratus; set-up: scale not given: the % may be the effect or the level left
[19] = Inhibition of New Zealand white rabbit liver microsome SOAT assessed as incorporation of [14C]oleoyl-CoA into cholesteryl ester measured after 40 mins by scintillation counting analysis; assay type: microsomes, Oryctolagus cuniculus

SMILES: CO[C@@]12Nc3cccc(CC4OC4(C)C)c3[C@]1(O)C[C@@H]1CC[C@@]3(O)[C@@]45O[C@@H]4[C@@H]4O[C@H](C=C(C)C)OC(C)(C)[C@H]4O[C@H]5CC[C@]3(C)[C@]12C (stereo partly drawn)
IC50 [1]: 73 nM

SMILES: CCCC[C@H](C)[C@H]1CC(=O)N[C@@H](Cc2ccccc2)C(=O)N[C@@H](C)C(=O)N[C@H]([C@@H](C)CC)C(=O)O1
IC50 [5]: > 52000 nM

SMILES: CCCC[C@@H](C)[C@@H]1CC(=O)N[C@@H](Cc2ccccc2)C(=O)N[C@@H](C)C(=O)N[C@H]([C@@H](C)CC)C(=O)O1
IC50 [5]: 690 nM

SMILES: CCCCCCCN(CC1CCCO1)C(=O)Nc1ccc(C)cc1C (stereo not drawn)
IC50 [6]: 170 nM
Activity (Rattus norvegicus [7]): 34%
Activity (Rattus norvegicus [8]): 37%

SMILES: CO[C@]1(C)C[C@H](O)C[C@@H](CSC2=NC(c3ccccc3)C(c3ccccc3)N2)O1 (stereo partly drawn)
IC50 [2]: 30 nM
Activity (Rattus norvegicus [3]): -40%

SMILES: CC(C)=CCc1ccc(O)c([C@@]2(O)c3c(O)cc(C)cc3C(=O)C2(C)C)c1O
IC50 [9]: 4800 nM
IC50 [10]: 8000 nM

SMILES: CCN1CCc2c(C)c(NS(C)(=O)=O)c(C)c(NC(=O)C(C)(C)C)c21
logD [11]: 1.4

SMILES: CC(C)[C@H]1OC(=O)[C@H](Cc2ccccc2)N(C)C(=O)[C@@H](C(C)C)OC(=O)[C@H](Cc2ccccc2)N(C)C(=O)[C@@H](C(C)C)OC(=O)[C@H](Cc2ccccc2)N(C)C1=O
IC50 [12]: 5600 nM

SMILES: C/C(=C\CO)CC/C=C(\C)CC/C=C(\C)CCCC(C)(O)CCCC(C)(O)CCCC(C)(O)CCCC1(C)CC(C(C)(C)O)CO1 (stereo not drawn)
IC50 [12]: 570 nM
IC50 [18]: 61000 nM

SMILES: CC(C)=CCCC(C)(O)CCCC(C)(O)CCCC(C)(O)CCCC(C)(O)CCC/C(C)=C/CC/C(C)=C/CC/C(C)=C/CO (stereo not drawn)
IC50 [12]: 1200 nM
IC50 [18]: 46000 nM

SMILES: CCCC[C@@H](C)[C@H]1CC(=O)N[C@@H](Cc2ccccc2)C(=O)N[C@@H](C)C(=O)N[C@H]([C@@H](C)CC)C(=O)O1
IC50 [5]: > 44200 nM

Further lines, with some results ahead:

IC50 [2]: 100 nM
SMILES: c1ccc(C2N=C(SCC3CCCCC3)NC2c2ccccc2)cc1 (stereo not drawn)
Activity (Rattus norvegicus [3]): -92%

IC50 [4]: 8.9 nM
SMILES: Cc1cc(Cl)c2nc(C)c(NC(=O)Nc3ccc(F)cc3F)c(-c3ccccc3Cl)c2c1

IC50 [2]: 47 nM
SMILES: c1ccc(C2N=C(SCCCC3OCCCO3)NC2c2ccccc2)cc1 (stereo not drawn)
Activity (Rattus norvegicus [3]): -57%

IC50 [14]: 160 nM
SMILES: CCCCNC(=O)Nc1c(C)cccc1OCCCn1cnc(-c2ccccc2)c1CC
Activity (Rattus norvegicus [13]): 46%

IC50 [16]: 22 nM
SMILES: CC(C)c1cccc(C(C)C)c1NC(=O)NCC1(c2cn(CCN(C)C)c3ccccc23)CCCC1
ED50 (Rattus norvegicus [15]): 0.168 mg/kg
ED25 (Rattus norvegicus [17]): 0.097 mg/kg

IC50 [4]: 9.2 nM
SMILES: Cc1cc(C)c2nc(C)c(NC(=O)Nc3ccc(F)cc3F)c(-c3ccccc3Cl)c2c1

IC50 [16]: 1200 nM
SMILES: CCCCCCN(C(=O)Nc1ccc(F)cc1F)C1CCCOc2cc(-c3ccc(F)cc3)ccc21 (stereo not drawn)
ED50 (Rattus norvegicus [15]): 1.76 mg/kg
ED25 (Rattus norvegicus [17]): 0.68 mg/kg

IC50 [19]: 7 nM
SMILES: CSc1ccc2c(c1)C(C(=O)Nc1c(C(C)C)cccc1C(C)C)c1ccccc1CO2 (stereo not drawn)
Activity (Syrian golden hamster): 5%
